Source: patent US6414154B1, “Tetraisoquinoline derivatives as modulators of dopamine D3 receptors” (SmithKline Beecham p.l.c., priority 1998, dated 2002)

Target: T1, human D3 dopamine receptors (Homo sapiens, UniProt P35462)
T1 construct: expressed in transfected cells; host or cells: CHO cells (crude cell membranes)
Experiment: displacement of [125I] iodosulpride binding to cloned human D3 dopamine receptors expressed in CHO cells
Details: 0.1 nM [125I] iodosulpride, CHO cell membranes, 30 min at 37° C.; read-out: pKi at the D3 receptor (converted)
Experimental: The inhibition constants (Ki) of test compounds for displacement of [^125I] iodosulpride binding to human D3 dopamine receptors expressed in CHO cells were determined as follows. […] Cultures were grown as monolayers or in suspension in standard cell culture media. Cells were recovered by scraping (from monolayers) or by centrifugation (from suspension cultures), and were washed two or three times by suspension in phosphate buffered saline followed by collection by centrifugation. Cell pellets were stored frozen at −40° C. Crude cell membranes were prepared by homogenisation followed by high-speed centrifugation, and characterisation of cloned receptors achieved by radioligand binding.
Cell pellets were gently thawed at room temperature, and resuspended in about 20 volumes of ice-cold 50 mM Tris salts (pH 7.4@37° C.), 20 mM EDTA, 0.2 M sucrose. The suspension was homogenised using an Ultra-Turrax at full speed for 15 sec. The homogenate was centrifuged at 18,000 r.p.m for 20 min at 4° C. in a Sorvall RC5C centrifuge. The membrane pellet was resuspended in ice-cold 50 mM Tris salts (pH 7.4@37° C.), using an Ultra-Turrax, and recentrifuged at 18,000 r.p.m for 15 min at 4° C. in a Sorvall RC5C. The membranes were washed two more times with ice-cold 50 mM Tris salts (pH 7.4@37° C.). The final pellet was resuspended in 50 mM Tris salts (pH 7.4@37° C.), and the protein content determined using bovine serum albumin as a standard (Bradford, M. M. (1976) Anal. Biochem. 72, 248-254).
Crude cell membranes were incubated with 0.1 nM [^125I] iodosulpride (˜2000 Ci/mmol; Amersham, U. K.), and the test compound in a buffer containing 50 mM Tris salts (pH 7.4@37° C.), 120 mM NaCl, 5 mM KCl, 2 mM CaCl2, 1 mM MgCl2, 0.1% (w/v) bovine serum albumin, in a total volume of 1 ml for 30 min at 37° C. Following incubation, samples were filtered using a Brandel Cell Harvester, and washed three times with ice-cold 50 mM Tris salts (pH 7.4@37° C.), 120 mM NaCl, 5 mM KCl, 2 mM CaCl2, 1 mM MgCl2. The radioactivity on the filters was measured using a Cobra gamma counter (Canberra Packard). Non-specific binding was defined as the radioligand binding remaining after incubation in the presence of 100 μM iodosulpride. For competition curves, 14 concentrations (half-log dilutions) of competing cold drug were used. Competition curves were analysed simultaneously whenever possible using non-linear least-squares fitting procedures, capable of fitting one, two or three site models.

T1 sequence (P35462 whole entry): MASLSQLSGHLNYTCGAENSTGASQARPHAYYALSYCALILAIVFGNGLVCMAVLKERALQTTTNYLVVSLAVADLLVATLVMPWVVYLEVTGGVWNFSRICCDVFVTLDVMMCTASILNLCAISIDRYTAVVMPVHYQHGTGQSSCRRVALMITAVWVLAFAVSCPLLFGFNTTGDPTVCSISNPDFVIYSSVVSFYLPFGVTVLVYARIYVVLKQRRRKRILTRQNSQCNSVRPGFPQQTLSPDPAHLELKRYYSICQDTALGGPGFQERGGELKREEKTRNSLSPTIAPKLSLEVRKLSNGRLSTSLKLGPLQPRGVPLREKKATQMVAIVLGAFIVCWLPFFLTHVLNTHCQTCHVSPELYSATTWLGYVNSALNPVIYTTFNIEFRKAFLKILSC

Ki [nM]	SMILES
3.16 to 12.6	N#Cc1ccc2c(c1)CCN(CC[C@H]1CC[C@H](NC(=O)Cc3cccc(C(F)(F)F)c3)CC1)C2 [Example 20, trans-6-Cyano-2-(2-(1-(4-(3-trifluoromethyl)phenylacetamido)-cyclohexyl)ethyl)-1,2,3,4-tetrahydroisoquinoline]
3.16 to 12.6	N#Cc1ccc2c(c1)CCN(CC[C@H]1CC[C@H](NC(=O)Cc3ccc(-c4ccccc4)cc3)CC1)C2 [Example 9, trans-6-Cyano-2-(^2-(1-(4-(4-phenyl)phenylacetamido)cyclohexyl)-ethyl)-1,2,3,4-tetrahydroisoquinoline]
